From ChEMBL document CHEMBL3763050, “Fragment-Based Discovery of 2-Aminoquinazolin-4(3H)-ones As Novel Class Nonpeptidomimetic Inhibitors of the Plasmepsins I, II, and IV” (J Med Chem, 2016)

Experiments:
[1] = target: Plasmepsin II (Plasmodium falciparum, UniProt P46925); experiment: Inhibition of Plasmodium falciparum plasmepsin 2 preincubated for 30 mins followed by DABCYL-Glu-Arg-Nle-Phe-Leu-Ser-Phe-Pro-EDANS substrate addition by FRET assay
[2] = target: Cathepsin D (Homo sapiens, UniProt P07339); experiment: Inhibition of CatD (unknown origin) preincubated for 30 mins followed by DABCYL-Glu-Arg-Nle-Phe-Leu-Ser-Phe-Pro-EDANS substrate addition by FRET assay
Sequence of Cathepsin D (P07339 65-162 limits assumed): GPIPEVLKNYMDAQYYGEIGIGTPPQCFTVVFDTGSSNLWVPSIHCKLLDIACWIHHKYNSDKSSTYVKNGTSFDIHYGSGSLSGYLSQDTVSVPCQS
Sequence of Cathepsin D (P07339 169-412 limits assumed): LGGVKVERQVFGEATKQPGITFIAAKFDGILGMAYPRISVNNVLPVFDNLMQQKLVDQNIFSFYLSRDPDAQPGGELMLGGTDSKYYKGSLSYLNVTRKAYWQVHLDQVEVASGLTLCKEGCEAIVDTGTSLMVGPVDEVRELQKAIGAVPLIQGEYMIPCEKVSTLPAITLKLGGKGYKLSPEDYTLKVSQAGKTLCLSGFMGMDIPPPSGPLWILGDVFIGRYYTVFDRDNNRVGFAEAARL

[3] = target: Plasmepsin I (Plasmodium falciparum, UniProt P39898); experiment: Inhibition of Plasmodium falciparum plasmepsin 1 preincubated for 30 mins followed by DABCYL-Glu-Arg-Nle-Phe-Leu-Ser-Phe-Pro-EDANS substrate addition by FRET assay
Sequence of Plasmepsin I (P39898 whole entry): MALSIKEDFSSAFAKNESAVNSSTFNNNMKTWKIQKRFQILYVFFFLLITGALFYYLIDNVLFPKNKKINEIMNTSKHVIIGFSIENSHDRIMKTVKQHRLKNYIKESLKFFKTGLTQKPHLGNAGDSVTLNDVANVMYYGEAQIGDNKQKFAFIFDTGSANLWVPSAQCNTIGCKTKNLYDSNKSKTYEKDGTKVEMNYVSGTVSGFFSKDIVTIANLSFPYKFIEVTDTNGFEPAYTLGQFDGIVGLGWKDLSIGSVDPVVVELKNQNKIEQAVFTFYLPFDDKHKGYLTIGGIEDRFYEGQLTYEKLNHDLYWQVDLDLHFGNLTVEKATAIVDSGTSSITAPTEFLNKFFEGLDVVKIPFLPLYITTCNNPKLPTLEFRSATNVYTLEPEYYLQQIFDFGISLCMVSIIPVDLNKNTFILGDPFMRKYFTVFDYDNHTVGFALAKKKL

[4] = Inhibition of Plasmodium falciparum plasmepsin 4 preincubated for 30 mins followed by DABCYL-Glu-Arg-Nle-Phe-Leu-Ser-Phe-Pro-EDANS substrate addition by FRET assay
[5] = test system: Plasmodium falciparum; experiment: Antimalarial activity against Plasmodium falciparum 3D7 after 96 hrs by SYBR Green 1 assay; assay type: functional, organism-based; settings: 3D7, 96 h

Sequence of Plasmepsin II (P46925 whole entry): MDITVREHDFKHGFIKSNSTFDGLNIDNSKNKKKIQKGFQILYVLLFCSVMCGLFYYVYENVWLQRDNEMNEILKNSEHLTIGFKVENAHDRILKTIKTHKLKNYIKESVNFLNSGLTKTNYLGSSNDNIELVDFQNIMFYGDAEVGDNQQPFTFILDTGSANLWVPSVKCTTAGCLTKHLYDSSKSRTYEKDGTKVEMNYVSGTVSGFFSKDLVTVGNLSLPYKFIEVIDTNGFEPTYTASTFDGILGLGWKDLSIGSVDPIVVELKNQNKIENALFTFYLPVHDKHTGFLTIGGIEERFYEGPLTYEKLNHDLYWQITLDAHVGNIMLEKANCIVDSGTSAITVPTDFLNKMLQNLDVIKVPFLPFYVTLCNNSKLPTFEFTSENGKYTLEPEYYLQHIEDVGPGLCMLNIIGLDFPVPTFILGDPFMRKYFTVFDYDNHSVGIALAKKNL

IC50 [1] [nM] | IC50 [2] [nM] | IC50 [3] [nM] | IC50 [4] [nM] | EC50 [5] [nM] | SMILES
10700 | 100000 | 9400 | 1200 |  | Nc1nc2cc(-c3ccc(CCC4CCCCC4)cc3)ccc2c(=O)n1C[C@@H]1CC[C@H](c2ccccc2)O1 (racemic)
600 | > 100000 | 1400 | 400 |  | CC(C)CCc1ccc(-c2ccc3c(=O)n(C[C@@H]4CC[C@H](c5ccccc5)O4)c(N)nc3c2)cc1 (racemic)
2500 | 19500 | 3700 | 1300 |  | Nc1nc2cc(-c3ccccc3)ccc2c(=O)n1C[C@@H]1CC[C@H](c2ccc3ccccc3c2)O1 (racemic)
2900 | 9000 | 2400 | 1100 |  | Nc1nc2cc(-c3ccccc3)ccc2c(=O)n1C[C@@H]1CC[C@@H](c2ccccc2)O1 (racemic)
3000 | 22000 | 4600 | 2700 |  | Nc1nc2cc(-c3ccccc3)ccc2c(=O)n1C[C@@H]1CC[C@H](c2ccccc2)O1
32000 | 91000 | 6500 | 400 | 3900 | Nc1nc2cc(-c3ccc(CCCCc4ccccc4)cc3)ccc2c(=O)n1C[C@@H]1CC[C@H](c2ccccc2)O1 (racemic)
1600 | 25000 | 2300 | 1500 |  | CC(C)[C@H]1CC[C@@H](Cn2c(N)nc3cc(-c4ccccc4)ccc3c2=O)O1 (racemic)
2400 | 8600 | 500 | 800 |  | Nc1nc2cc(-c3ccc(C4CCCCC4)cc3)ccc2c(=O)n1C[C@@H]1CC[C@H](c2ccccc2)O1 (racemic)
2600 | 1400 | 270 | 400 |  | COC(=O)CCc1ccc(-c2ccc3c(=O)n(C[C@@H]4CC[C@H](c5ccccc5)O4)c(N)nc3c2)cc1 (racemic)
150 | 5000 | 300 | 100 | 1100 | CCCCCc1ccc(-c2ccc3c(=O)n(C[C@@H]4CC[C@H](c5ccccc5)O4)c(N)nc3c2)cc1 (racemic)
12500 | > 200000 | 52000 | 20000 |  | Nc1nc2cc(-c3ccccc3)ccc2c(=O)n1CC1CC(c2ccccc2)CO1 (mixture of isomers)
2000 | 3000 | 800 | 1000 |  | CCCCc1cccc(-c2ccc3c(=O)n(C[C@@H]4CC[C@H](c5ccccc5)O4)c(N)nc3c2)c1 (racemic)
12000 | 52000 | 36000 | 2000 |  | Nc1nc2cc(-c3ccc(CCCCCc4ccccc4)cc3)ccc2c(=O)n1C[C@@H]1CC[C@H](c2ccccc2)O1 (racemic)
400 | 3200 | 480 | 300 |  | Nc1nc2cc(-c3ccc(CCC4CC4)cc3)ccc2c(=O)n1C[C@@H]1CC[C@H](c2ccccc2)O1 (racemic)
230 | 2200 | 300 | 200 | 900 | CCCCc1ccc(-c2ccc3c(=O)n(C[C@@H]4CC[C@H](c5ccccc5)O4)c(N)nc3c2)cc1 (racemic)
2300 | 53400 | 6000 | 1300 |  | Nc1nc2cc(-c3ccccc3)ccc2c(=O)n1C[C@@H]1CCCO1 (racemic)
2000 | 220000 | 2000 | 700 |  | Nc1nc2cc(-c3ccc(CCc4ccccc4)cc3)ccc2c(=O)n1C[C@@H]1CC[C@H](c2ccccc2)O1 (racemic)
5300 | 9000 | 2000 | 3000 |  | Nc1nc2cc(-c3ccccc3)ccc2c(=O)n1CC1CCC2(CCCCC2)O1 (racemic)
340 | 4600 | 1200 | 500 |  | Nc1nc2cc(-c3ccccc3)ccc2c(=O)n1C[C@H]1CC[C@@H](c2ccccc2)O1
10000 | 6000 | 3200 | 130 | 1200 | Nc1nc2cc(-c3ccc(CCCc4ccccc4)cc3)ccc2c(=O)n1C[C@@H]1CC[C@H](c2ccccc2)O1 (racemic)
570 | 13800 | 1300 | 600 |  | Nc1nc2cc(-c3ccccc3)ccc2c(=O)n1C[C@@H]1CC[C@H](c2ccccc2)O1 (racemic)
